Assay results: the NIST ThermoML archive (doi:10.1021/je060457+)

Experiment: refractive index (Na D-line) (dimensionless); xn = mol fraction of the nth substance listed
Conditions: 101 kPa, Liquid, Standard Abbe refractometry

CNCCO [2-(methylamino)ethanol] + O
refractive index
Conditions	293.15 K	298.15 K	303.15 K	308.15 K	313.15 K	318.15 K	323.15 K
x1 = 0.0493	1.3559	1.3552	1.3544	1.3536	1.3527	1.3517	1.3507
x1 = 0.0657	1.3625	1.3617	1.3608	1.3599	1.3589	1.3579	1.3568
x1 = 0.1054	1.3767	1.3754	1.3744	1.3732	1.372	1.3708	1.3696
x1 = 0.1987	1.3997	1.3983	1.3967	1.3956	1.394	1.3921	1.3907
x1 = 0.301	1.4151	1.4137	1.412	1.4105	1.4091	1.4074	1.4055
x1 = 0.3834	1.4235	1.4218	1.4201	1.4186	1.417	1.4151	1.4134
x1 = 0.5041	1.4288	1.4272	1.4253	1.4239	1.4221	1.4204	1.4187
x1 = 0.6	1.4324	1.4306	1.4289	1.4272	1.4254	1.4238	1.422
x1 = 0.6974	1.4347	1.4329	1.4311	1.4294	1.4275	1.4257	1.4239
x1 = 0.8008	1.4366	1.4348	1.433	1.4313	1.4293	1.4274	1.4257
x1 = 0.9031	1.4381	1.4363	1.4344	1.4328	1.4306	1.4288	1.4268
x1 = 1	1.4393	1.4375	1.4356	1.4339	1.4318	1.4298	1.4278
